Counter-ions that a name gives are not always drawn. Like-named read-outs stand apart in the source and are kept apart here.
Target: T1, HIV protease (Human immunodeficiency virus type 1 group M subtype B, UniProt P04585)
T1 construct: A third viral enzyme known as protease then cleaves the polyproteins
Test: Enzymatic Assay for Determining the Inhibition Constant (Ki) of Synthetic Compounds Targeting the HIV Protease (fluorometric FRET assay)
Assay type: biochemical
Description: Enzymatic Assay for Determining the Inhibition Constant (Ki) of Synthetic Compounds Targeting the HIV Protease
This is a fluorometric assay based on the cleavage by protease of a substrate carrying a donor group (EDANS) and an acceptor group (DABCYL) on each side of the cleavage site, interacting together through fluorescence resonance energy transfer (FRET) as described by Matayoshi et al. (Science 247:[…], 1990).
After calculation of Vo and Vi, the inhibition constant (Ki) of the compound is determined using the equation of Henderson: [formula]
where Vo=the enzyme's initial velocity
Vi=the enzyme velocity in the presence of the inhibitory compound,
[I]=inhlibitor concentration, [S]=substrate concentration,
Km=Michaelis-Menten constant and Kiapp=apparent Ki
Graphs are traced and the Ki determined using GraphPad Prism software v. 3.0.

[1] = Table 1, compounds of formula I, read-out: Ki (anti-protease activity)

| Structure (SMILES) | Ki [nM] | Ki [1] [nM] |
| --- | --- | --- |
| Cc1ccc(S(=O)(=O)N(CC(C)C)[C@H](CO)CCCCNC(=O)CN(Cc2ccccc2)C(=O)c2ccccc2)cc1 [Example 158, (2S) 2-N-Isobutyl-2-N-(4-methylbenzenesulfonyl)-6-N-(N′α-benzoyl-N′α-benzylglycyl)-2,6-diaminohexanol] | 95 | – |
| Cc1ccc(S(=O)(=O)N(CC(C)C)[C@H](CO)CCCCNC(=O)[C@H](Cc2ccccc2)NS(=O)(=O)c2ccc(F)cc2)cc1 [Example 125, (2S,2′S) 2-N-Isobutyl-2-N-(4-methylbenzenesulfonyl)-6-N-[N′α-(4-fluorobenzenesulfonyl)-S-phenylalanyl]-2,6-diaminohexanol] | – | 39 |
| CCC[C@H](NS(=O)(=O)c1ccccc1)C(=O)NCCCC[C@@H](C(=O)O)N(CC(C)C)S(=O)(=O)c1ccc(C)cc1 [Example 14, Nα-Isobutyl-Nα-(4-methylbenzenesulfonyl)-Nε-[N′α-(benzenesulfonyl)-L-norvalyl]-L-lysine] | 185 | – |
| Cc1ccc(S(=O)(=O)N[C@@H](Cc2c[nH]c3ccccc23)C(=S)NCCCC[C@@H](C(=O)O)N(CC(C)C)S(=O)(=O)c2ccc(C)cc2)cc1 [Example 73, Nα-Isobutyl-Nα-(4-methylbenzenesulfonyl)-Nε-[N′α-(4-methylbenzenesulfonyl)-L-thiotryptophanyl]-L-lysine] | 14 | – |
| Cc1ccc(S(=O)(=O)N(CC(C)C)[C@@H](CCCCNC(=O)[C@H](Cc2ccc(OCc3ccccc3)cc2)NC(=O)OC(C)(C)C)C(=O)O)cc1 [Example 87, Nα-Isobutyl-Nα-(4-methylbenzenesulfonyl)-Nε-(N′α-tert-butoxycarbonyl-O-benzyl-L-tyrosyl)-L-lysine] | 49 | – |
| Cc1ccc(S(=O)(=O)N(CC(C)C)[C@@H](CCCCNC(=O)[C@H](Cc2ccccc2)NC(=O)C(C)(C)C)C(=O)O)cc1 [Example 52, Nα-Isobutyl-Nα-(4-methylbenzenesulfonyl)-Nε-(N′α-pivaloyl-L-phenylalanyl)-L-lysine] | 0.545 | – |
| CC(=O)Nc1ccc(S(=O)(=O)N[C@@H](Cc2ccccc2)C(=O)NCCCC[C@@H](C(=O)O)N(CC(C)C)S(=O)(=O)c2ccc(C)cc2)cc1 [Example 3, Nα-Isobutyl-Nα-(4-methylbenzenesulfonyl)-Nε-[N′α-(4-acetamidobenzenesulfonyl)-L-phenylalanyl]-L-lysine] | 0.977 | – |
| Cc1ccc(S(=O)(=O)N(CC(C)C)[C@@H](CCCCNC(=O)[C@H](Cc2ccccc2)NS(=O)(=O)c2ccc([N+](=O)[O-])cc2)C(=O)O)cc1 [Example 10, Nα-Isobutyl-Nα-(4-methylbenzenesulfonyl)-Nε-[N′α-(4-nitrobenzenesulfonyl)-L-phenylalanyl]-L-lysine] | 18 | – |
| Cc1ccc(S(=O)(=O)N[C@@H](Cc2ccccc2)C(=S)NCCCC[C@@H](C(=O)O)N(CC(C)C)S(=O)(=O)c2ccc(C)cc2)cc1 [Example 72, Nα-Isobutyl-Nα-(4-methylbenzenesulfonyl)-Nε-[N′α-(4-methylbenzenesulfonyl)-L-thiophenylalanyl]-L-lysine] | 33 | – |
| Cc1ccc(S(=O)(=O)N(CC(C)C)[C@@H](CCCCNC(=O)[C@H](Cc2c[nH]c3ccccc23)NS(=O)(=O)c2ccc([N+](=O)[O-])cc2)C(=O)O)cc1 [Example 6, Nα-Isobutyl-Nα-(4-methylbenzenesulfonyl)-Nε-[N′α-(4-nitrobenzenesulfonyl)-L-tryptophanyl]-L-lysine] | 7.3 | – |
| Cc1ccc(S(=O)(=O)N(CC(C)C)[C@@H](CCCCNC(=O)CNCCN2CCCCC2)C(=O)O)cc1 [Example 110, Nα-Isobutyl-Nα-(4-methylbenzenesulfonyl)-Nε-[N′α-(piperidinyl-N-ethyl)glycyl]-L-lysine Trifluoroacetic Acid Salt] | – | > 300 |
| Cc1ccc(S(=O)(=O)N(CC(C)C)[C@H](CO)CCCCNC(=O)[C@H](Cc2c[nH]c3ccccc23)NC(=O)c2ccccc2)cc1 [Example 191, (2S,2′S) 2-N-Isobutyl-2-N-(4-methylbenzenesulfonyl)-6-N-(N′α-benzoyl-S-tryptophanyl)-2,6-diaminohexanol] | 3.8 | – |

From US6610689B2, “HIV protease inhibitors based on amino acid derivatives” (priority 2001, dated 2003)
